Each structure is given as a SMILES string. Counter-ions that a name gives are not always drawn.

The melting point is the temperature, or range, at which the solid turns liquid.

In data set [1] the target is T1, iGluR5 receptor (relative to iGluR2 AMPA receptor subtype) (Homo sapiens, UniProt P39086).
T1 construct: expressed in transfected cells; host or cells: HEK293 cells, stably transfected
The experiment in a line: iGluR5 antagonist binding affinity profile: displacement of 3[H] kainate (iGluR5) versus 3[H] AMPA (iGluR2) in stably transfected HEK293 cells. To be noted: HEK293 cells stably transfected with human iGluR receptors; 3[H] kainate vs 3[H] AMPA displacement. From the text: To establish that the iGluR5 receptor subtype is mediating neurogenic protein extravasation, a functional characteristic of migraine, the binding affinity of the compounds of formula I to the iGluR5 receptor is first measured using standard methods. For example, the activity of compounds acting at the iGluR5 receptor can be determined by radiolabelled ligand binding studies at the cloned and expressed human iGluR5 receptor (Korczak et al., 1994, Recept. Channels 3; 41-49), and by whole cell voltage clamp electrophysiological recordings of currents in acutely isolated rat dorsal root ganglion neurons (Bleakman et al., 1996, Mol. Pharmacol. 49; 581-585). The selectivity of compounds acting at the iGluR5 receptor subtype can then be determined by comparing antagonist activity at the iGluR5 receptor with antagonist activity at other AMPA and kainate receptors. […] AMPA by increasing concentrations of antagonist is measured on iGluR1, iGluR2, iGluR3, and iGluR4 expressing cells, while displacement of ^3[H] kainate (KA) is measured on iGluR5, iGluR6, iGluR7, and KA2-expressing cells. As an indicia of selectivity, the ratio of binding affinity to the iGluR2 AMPA receptor subtype, versus the binding affinity to iGluR5 kainate receptor subtype, is also determined.

Data set [2] has as its system neurogenic dural protein extravasation. The data set is described as follows: Animal model of dural protein extravasation (trigeminal ganglion stimulation, Evans Blue). To be noted: given orally; approximated from dose-response curve. In kind it is in vivo, rats or guinea pigs. The procedure: Methods, 81(1,2) 19-24 (1998). For example, the following animal model is employed to determine the ability of each of the compounds of formula I to inhibit protein extravasation, an exemplary functional assay of the neuronal mechanism of migraine.
Harlan Sprague-Dawley rats (225-325 g) or guinea pigs from Charles River Laboratories (225-325 g) are anesthetized with sodium pentobarbital intraperitoneally (65 mg/kg or 45 mg/kg respectively) and placed in a stereotaxic frame (David Kopf Instruments) with the incisor bar set at −3.5 mm for rats or −4.0 mm for guinea pigs. Following a midline sagital scalp incision, two pairs of bilateral holes are drilled through the skull (6 mm posterially, 2.0 and 4.0 mm laterally in rats; 4 mm posteriorly and 3.2 and 5.2 mm laterally in guinea pigs, all coordinates referenced to bregma). […]
A fluorescence microscope (Zeiss) equipped with a grating monchromator and a spectrophotometer is used to quantify the amount of Evans Blue dye in each sample. An excitation wavelength of approximately 535 nm is utilized and the emission intensity at 600 nm was determined. […] This facilitates the computer-controlled movement of the stage with fluorescence measurements at 25 points ([…]) on each dural sample. The mean and standard deviation of the measurements are determined by the computer. […]

T1 sequence (P39086 31-918): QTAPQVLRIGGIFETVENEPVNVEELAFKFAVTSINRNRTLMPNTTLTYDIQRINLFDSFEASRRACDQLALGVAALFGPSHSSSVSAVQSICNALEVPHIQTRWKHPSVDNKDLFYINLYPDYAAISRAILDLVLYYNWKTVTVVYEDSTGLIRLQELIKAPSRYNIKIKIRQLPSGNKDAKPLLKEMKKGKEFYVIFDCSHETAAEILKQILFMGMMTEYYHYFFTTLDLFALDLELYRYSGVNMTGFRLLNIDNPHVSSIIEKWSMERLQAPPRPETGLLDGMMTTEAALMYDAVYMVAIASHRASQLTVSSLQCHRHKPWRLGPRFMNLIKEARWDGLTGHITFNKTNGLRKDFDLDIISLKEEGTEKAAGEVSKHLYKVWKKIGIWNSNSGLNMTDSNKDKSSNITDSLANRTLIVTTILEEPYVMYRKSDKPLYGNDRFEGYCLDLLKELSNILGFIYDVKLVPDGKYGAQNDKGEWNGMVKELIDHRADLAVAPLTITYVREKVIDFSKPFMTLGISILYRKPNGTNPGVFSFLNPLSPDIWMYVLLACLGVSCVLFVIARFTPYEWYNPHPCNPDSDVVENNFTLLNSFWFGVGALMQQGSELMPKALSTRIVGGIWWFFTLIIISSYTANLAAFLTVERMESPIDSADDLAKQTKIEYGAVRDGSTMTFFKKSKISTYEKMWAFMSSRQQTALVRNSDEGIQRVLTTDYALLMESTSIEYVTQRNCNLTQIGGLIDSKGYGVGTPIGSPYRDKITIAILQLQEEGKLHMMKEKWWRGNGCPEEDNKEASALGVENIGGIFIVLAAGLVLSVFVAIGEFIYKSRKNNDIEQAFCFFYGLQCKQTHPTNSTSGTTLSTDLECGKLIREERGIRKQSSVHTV

As to `O=C(O)[C@@H]1C[C@H]2C[C@@H](Cc3ccccc3-c3nnn[nH]3)CC[C@H]2CN1`, in data set [1], the “selectivity: ratio of binding affinity for the iGluR5 receptor over the iGluR2 receptor” value was found to be 5 fold.

Take `CCOC(=O)c1ncn(C[C@H]2CC[C@H]3CN[C@H](C(=O)OCC)C[C@H]3C2)c1C(=O)OCC` (as salt: hydrochloride) [Example 11, [3S 4aR,6S,8aR]-Ethyl 6-{[4,5-Bis(ethoxycarbonyl)-1H-imidazol-1-yl]methyl}1 2,3,4,4a,5,6,7,8,8a-decahydroisoquinoline-3-carboxylate Dihydrochloride]: the melting point fell in the range of 99 to 101 °C.

Take `CCOC(=O)c1cn(C[C@H]2CC[C@H]3CN[C@H](C(=O)OCC)C[C@H]3C2)cn1` [Example 3, [3S,4aR,6S,8aR]-Ethyl-6-((4-ethoxycarbonyl-1H-imidazol-1-yl)methyl)-1,2,3,4,4a,5,6,7,8,8a-decahydroisoquinoline-3-carboxylate]: in data set [2], the “ID100 (dose that inhibits the extravasation by 100%)” value came to 0.3 ng/kg.

For the origin of these results see patent US6579886B2, “Selective iglur5 receptor antagonists” (Eli Lilly and Company, priority 1999, dated 2003).
